The record followed here is US20250171438A1 (Agios Pharmaceuticals, Inc., priority 2022, published 2025).

Structures are written as SMILES. Some results are limits rather than exact numbers.

For one assay, the target named is T1, human PAH with the R408W mutation (Homo sapiens, UniProt P00439, R408W).
T1 construct: expressed in transfected cells
T1 sequence (P00439 1-452 R408W): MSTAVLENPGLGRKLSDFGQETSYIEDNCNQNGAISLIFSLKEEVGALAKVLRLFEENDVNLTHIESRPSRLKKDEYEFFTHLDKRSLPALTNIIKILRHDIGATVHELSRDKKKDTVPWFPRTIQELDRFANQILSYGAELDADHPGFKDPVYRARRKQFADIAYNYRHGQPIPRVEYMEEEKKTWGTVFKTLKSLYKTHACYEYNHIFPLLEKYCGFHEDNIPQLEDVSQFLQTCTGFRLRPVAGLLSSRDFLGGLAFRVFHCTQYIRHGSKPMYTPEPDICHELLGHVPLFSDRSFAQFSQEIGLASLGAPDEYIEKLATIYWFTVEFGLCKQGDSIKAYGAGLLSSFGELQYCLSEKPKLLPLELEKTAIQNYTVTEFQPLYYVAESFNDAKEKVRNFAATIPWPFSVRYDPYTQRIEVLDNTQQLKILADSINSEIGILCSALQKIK
Put plainly: Cell Based Phenylalanine Flux Assay. More on the design: scale not given here. The settings on record: A375 cells expressing human R408W PAH; 24 hrs compound incubation; 13C-Tyrosine by LC-MS; average where tested multiple times; read-out: AC50.
Consider `O=C(CCC1CC1)N1CCc2[nH]cnc2[C@@H]1c1nc2ccc(Cl)cc2[nH]1` [Example 938, (R)-1-(4-(6-chloro-1H-benzo[d]imidazol-2-yl)-6,7-dihydro-1H-imidazo[4,5-c]pyridin-5(4H)-yl)-3-cyclopropylpropan-1-one], for which the AC50 is 1000 to 5000 nM. With `CC1(C(=O)N2CCc3[nH]cnc3[C@@H]2c2nc3ccccc3s2)CC1(F)F` (single isomer, unassigned) [Example 1290], the AC50 was > 5000 nM. Turning to `Cc1nc(C2CC2)oc1C(=O)N1CCc2[nH]cnc2[C@@H]1c1nc2c(F)cccc2s1` [Example 1528, (R)-(2-cyclopropyl-4-methyloxazol-5-yl)(4-(4-fluorobenzo[d]thiazol-2-yl)-6,7-dihydro-1H-imidazo[4,5-c]pyridin-5(4H)-yl)methanone], the half-maximal activity concentration (AC50) was in the range of 1000 to 5000 nM. On the same count and under the same terms, the result for `CC(C)(O)c1nc(C(F)F)c(C(=O)N2CCc3[nH]cnc3[C@H]2c2nc3c(F)cccc3s2)o1` [Example 1773, (S)-(4-(difluoromethyl)-2-(2-hydroxypropan-2-yl)oxazol-5-yl)(4-(4-fluorobenzo[d]thiazol-2-yl)-6,7-dihydro-1H-imidazo[4,5-c]pyridin-5(4H)-yl)methanone] reads < 500 nM; that for `O=C(c1cnc(-c2ccccn2)s1)N1CCc2[nH]cnc2[C@H]1c1nc2ccccc2[nH]1` [Example 989, (S)-(4-(1H-benzo[d]imidazol-2-yl)-6,7-dihydro-1H-imidazo[4,5-c]pyridin-5(4H)-yl)(2-(pyridin-2-yl)thiazol-5-yl)methanone], 500 to 1000 nM. Still for that read-out and setting: the result for `O=C(c1ncco1)N1CCc2[nH]cnc2[C@H]1c1nc2cccc(F)c2s1` [Example 1279, (S)-(4-(7-fluorobenzo[d]thiazol-2-yl)-6,7-dihydro-1H-imidazo[4,5-c]pyridin-5(4H)-yl)(oxazol-2-yl)methanone] reads 1000 to 5000 nM; that for `O=C(c1nccs1)N1CCc2[nH]cnc2[C@H]1c1nc2c(Cl)cccc2s1` [Example 1201, (S)-(4-(4-chlorobenzo[d]thiazol-2-yl)-6,7-dihydro-1H-imidazo[4,5-c]pyridin-5(4H)-yl)(thiazol-2-yl)methanone], 1000 to 5000 nM. As to `O=C(c1nncs1)N1CCc2[nH]cnc2[C@@H]1c1nc2ccc(Cl)cc2[nH]1` [Example 957, (R)-(4-(6-chloro-1H-benzo[d]imidazol-2-yl)-6,7-dihydro-1H-imidazo[4,5-c]pyridin-5(4H)-yl)(1,3,4-thiadiazol-2-yl)methanone], the AC50 is > 5000 nM. On to `O=C(c1oc(CCC2CC2)nc1C(F)(F)F)N1CCc2[nH]cnc2[C@H]1c1nc2c(F)cccc2s1` [Example 1625], for which the AC50 is < 500 nM. `O=C([C@@H]1CC1(F)F)N1CCc2[nH]cnc2[C@H]1c1nc2c(F)cccc2s1` [Example 1645]: the AC50 is 500 to 1000 nM. `Cn1cc(-c2nnc(C(=O)N3CCc4[nH]cnc4[C@H]3c3nc4ccccc4s3)o2)cn1` [Example 1462]: the concentration at half-maximal activity (AC50) fell in the range of 1000 to 5000 nM. Take `CC(C)(C)c1ncc(C(=O)N2CCc3[nH]cnc3[C@@H]2c2nc3c(F)cccc3s2)o1` [Example 1429, (R)-(2-(tert-butyl)oxazol-5-yl)(4-(4-fluorobenzo[d]thiazol-2-yl)-6,7-dihydro-1H-imidazo[4,5-c]pyridin-5(4H)-yl)methanone]: the AC50 lay within 500 to 1000 nM. On the same count and under the same terms, in the case of `CC(C)n1ncc(C(=O)N2CCc3[nH]cnc3[C@@H]2c2nc3c(F)cccc3s2)c1Br` [Example 1954, (R)-(5-bromo-1-isopropyl-1H-pyrazol-4-yl)(4-(4-fluorobenzo[d]thiazol-2-yl)-6,7-dihydro-1H-imidazo[4,5-c]pyridin-5(4H)-yl)methanone] it was 1000 to 5000 nM. Regarding `c1ccc2[nH]c([C@H]3c4nc[nH]c4CCN3c3nc4ccccc4o3)nc2c1` [Example 987, (R)-2-(4-(1H-benzo[d]imidazol-2-yl)-6,7-dihydro-1H-imidazo[4,5-c]pyridin-5(4H)-yl)benzo[d]oxazole], the AC50 was > 5000 nM.

With `Cn1cc(-c2ncc(C(=O)N3CCc4[nH]cnc4[C@H]3c3nc4ccccc4s3)s2)cn1` [Example 1229], the AC50 was < 500 nM. With `Cn1nccc1C(=O)N1CCc2[nH]cnc2[C@@H]1c1nc2c(C(F)(F)F)cccc2s1` [Example 2112, (R)-(1-methyl-1H-pyrazol-5-yl)(4-(4-(trifluoromethyl)benzo[d]thiazol-2-yl)-6,7-dihydro-1H-imidazo[4,5-c]pyridin-5(4H)-yl)methanone], the half-maximal activity concentration (AC50) was 1000 to 5000 nM.

On to `O=C(c1nc2ccccc2s1)N1CCc2[nH]cnc2[C@@H]1c1nc2ccccc2s1` [Example 1002, (R)-benzo[d]thiazol-2-yl(4-(benzo[d]thiazol-2-yl)-6,7-dihydro-1H-imidazo[4,5-c]pyridin-5(4H)-yl)methanone], for which the AC50 was 1000 to 5000 nM.

`Cn1nc(C(F)F)nc1C(=O)N1CCc2[nH]cnc2[C@H]1c1nc2ccccc2s1` [Example 2171]: the AC50 lay within 1000 to 5000 nM. `O=C(c1nnc(-c2cnn(CC(F)(F)F)c2)o1)N1CCc2[nH]cnc2[C@@H]1c1nc2c(F)cccc2s1` [Example 1843, (R)-(4-(4-fluorobenzo[d]thiazol-2-yl)-6,7-dihydro-1H-imidazo[4,5-c]pyridin-5(4H)-yl)(5-(1-(2,2,2-trifluoroethyl)-1H-pyrazol-4-yl)-1,3,4-oxadiazol-2-yl)methanone]: the concentration at half-maximal activity (AC50) lay in the range of 1000 to 5000 nM. On to `O=C(c1nccs1)N1CCc2nc[nH]c2[C@H]1c1nc2c(F)cccc2s1` [Example 1120, (S)-(4-(4-fluorobenzo[d]thiazol-2-yl)-6,7-dihydro-3H-imidazo[4,5-c]pyridin-5(4H)-yl)(thiazol-2-yl)methanone], for which the half-maximal activity concentration (AC50) was 500 to 1000 nM.

The same assay, now with this note: A375 cells expressing human R408W PAH; 24 hrs with compound; 13C-Tyrosine by LC-MS; average where tested multiple times.
With `O=C(CCC1CC1)N1CCc2[nH]cnc2C1c1nc2ccccc2[nH]1` (centres unmarked), the AC50 entry was “E, E”.

The assay is the same for the next values; noted with them: A375 cells expressing human R408W PAH; 24 hrs with compound; 13C-Tyrosine by LC-MS; average where tested multiple times; read-out: AC50.
As to `CN1CCN(c2nnc(C(=O)N3CCc4[nH]cnc4C3c3nc4ccccc4s3)o2)CC1` (centres unmarked), the AC50 lay in the range of 1000 to 5000 nM. Turning to `Cc1nnc(C(=O)N2CCc3[nH]cnc3C2c2nc3ccc(F)cc3s2)s1` (centres unmarked), the AC50 was > 5000 nM. Consider `Cc1nc(C(C)(C)S(C)(=O)=O)oc1C(=O)N1CCc2[nH]cnc2C1c1nc2c(F)cccc2s1` (centres unmarked), for which the AC50 lay within 1000 to 5000 nM. For the compound `O=C(Cc1nccs1)N1CCc2[nH]cnc2C1c1nc2ccc(F)cc2[nH]1` (centres unmarked), the concentration at half-maximal activity (AC50) fell in the range of 1000 to 5000 nM. With `O=C(c1cnn(CCO)c1Cl)N1CCc2[nH]cnc2C1c1nc2c(F)cccc2s1` (centres unmarked), the AC50 is 1000 to 5000 nM. With `O=C(c1cnsc1)N1CCc2[nH]cnc2[C@H]1c1nc2ccccc2[nH]1` [(S)-(4-(1H-benzo[d]imidazol-2-yl)-1,4,6,7-tetrahydro-5H-imidazo[4,5-c]pyridin-5-yl)(isothiazol-4-yl)methanone], the AC50 was in the range of 1000 to 5000 nM. For `CS(=O)(=O)N1CC(C(=O)N2CCc3[nH]cnc3C2c2nc3ccccc3s2)C1` (centres unmarked), the AC50 is 1000 to 5000 nM. Consider `O=C(Cc1cnn2ccccc12)N1CCc2[nH]cnc2[C@H]1c1nc2ccccc2[nH]1` [(S)-1-(4-(1H-benzo[d]imidazol-2-yl)-6,7-dihydro-1H-imidazo[4,5-c]pyridin-5(4H)-yl)-2-(pyrazolo[1,5-a]pyridin-3-yl)ethanone], for which the concentration at half-maximal activity (AC50) was in the range of 1000 to 5000 nM. Take `Cc1nnc(CCC(=O)N2CCc3[nH]cnc3C2c2nc3ccc(Br)cc3[nH]2)s1` (centres unmarked): the concentration at half-maximal activity (AC50) fell in the range of 1000 to 5000 nM.

Consider `O=C(c1cnn2cc(Cl)ccc12)N1CCc2[nH]cnc2C1c1nc2ccc(Br)cc2[nH]1` (centres unmarked), for which the AC50 was > 5000 nM. As to `COCCNc1nnc(C(=O)N2CCc3[nH]cnc3C2c2nc3ccccc3s2)o1` (centres unmarked), the half-maximal activity concentration (AC50) lay in the range of 1000 to 5000 nM.

As a reminder, the AC50 is the concentration giving half of the maximal activity seen.
